Data as given in US11014929B2, “Pyrazolopyrimidine compounds and uses thereof” (Incyte Corporation, priority 2016, dated 2021).

Molecular target: HPK1 (Homo sapiens (Human), UniProt Q92918)
Experiment: HPK1 Kinase Binding Assay
Settings: LanthaScreen tracer 222 binding, active HPK1, one hour incubation at 25° C.
Procedure: A stock solution of 1 mM test compound was prepared in DMSO. The compound plate was prepared by 3-fold and 11-point serial dilutions. 0.1 μL of the compound in DMSO was transferred from the compound plate to the white 384 well polystyrene plates. The assay buffer contained 50 mM HEPES, pH 7.5, 0.01% Tween-20, 5 mM MgCl2, 0.01% BSA, and 5 mM DTT. 5 μl of 4 nM active HPK1 (SignalChem M23-11G) prepared in the buffer was added to the plate. The enzyme concentration given was based on the given stock concentration reported by the vender. 5 μl of 18 nM tracer 222 (ThermoFisher PV6121) and 4 nM LanthaScreen Eu-Anti GST antibody (ThermoFisher PV5595) were added. After one hour incubation at 25° C., the plates were read on a PHERAstar FS plate reader (BMG Labtech). Ki values were determined.

HPK1, sequence (Q92918 1-346): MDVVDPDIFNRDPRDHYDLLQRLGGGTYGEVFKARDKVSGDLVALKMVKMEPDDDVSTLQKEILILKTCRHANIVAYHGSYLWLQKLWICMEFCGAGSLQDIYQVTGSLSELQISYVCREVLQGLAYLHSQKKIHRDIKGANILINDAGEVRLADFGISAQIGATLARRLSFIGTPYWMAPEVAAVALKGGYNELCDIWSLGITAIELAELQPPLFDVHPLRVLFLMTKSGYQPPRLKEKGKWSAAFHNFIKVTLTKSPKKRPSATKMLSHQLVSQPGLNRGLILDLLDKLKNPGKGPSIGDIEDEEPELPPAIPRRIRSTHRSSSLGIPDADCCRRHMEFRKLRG

SMILES | Ki [nM]
CN1CCN(c2ccc(-c3n[nH]c4cnc(-c5ccccc5F)nc34)cc2)CC1 [Example 1, 5-(2-Fluorophenyl)-3-[4-(4-methylpiperazin-1-yl)phenyl]-1H-pyrazolo[4,3-d]pyrimidine] | ≤ 100
Cc1ccccc1-c1ncc2[nH]nc(-c3ccc(N4CCN(C)CC4)cc3)c2n1 [Example 2, 3-(4-(4-Methylpiperazin-1-yl)phenyl)-5-o-tolyl-1H-pyrazolo[4,3-d]pyrimidine] | ≤ 100
COc1ccccc1-c1ncc2[nH]nc(-c3ccc(N4CCN(C)CC4)cc3)c2n1 [Example 3, 5-(2-Methoxyphenyl)-3-(4-(4-methylpiperazin-1-yl)phenyl)-1H-pyrazolo[4,3-d]pyrimidine] | ≤ 100
CN1CCN(c2ccc(-c3n[nH]c4cnc(-c5c(F)cccc5Cl)nc34)cc2)CC1 [Example 4, 5-(2-Chloro-6-fluorophenyl)-3-(4-(4-methylpiperazin-1-yl)phenyl)-1H-pyrazolo[4,3-d]pyrimidine] | ≤ 100
CN1CCN(c2ccc(-c3n[nH]c4cnc(-c5cccnc5)nc34)cc2)CC1 [Example 5, 3-(4-(4-Methylpiperazin-1-yl)phenyl)-5-(pyridin-3-yl)-1H-pyrazolo[4,3-d]pyrimidine] | ≤ 100
Cc1cncc(-c2ncc3[nH]nc(-c4ccc(N5CCN(C)CC5)cc4)c3n2)c1 [Example 6, 3-(4-(4-Methylpiperazin-1-yl)phenyl)-5-(5-methylpyridin-3-yl)-1H-pyrazolo[4,3-d]pyrimidine] | ≤ 100
CN1CCN(c2ccc(-c3n[nH]c4cnc(-c5ccc6c(c5)C(=O)NC6)nc34)cc2)CC1 [Example 7, 6-(3-(4-(4-Methylpiperazin-1-yl)phenyl)-1H-pyrazolo[4,3-d]pyrimidin-5-yl)isoindolin-1-one] | ≤ 100
CN1CCN(c2ccc(-c3n[nH]c4cnc(-c5cncc(C(=O)N6CCOCC6)c5)nc34)cc2)CC1 [Example 8, (5-(3-(4-(4-Methylpiperazin-1-yl)phenyl)-1H-pyrazolo[4,3-d]pyrimidin-5-yl)pyridin-3-yl)(morpholino)methanone] | ≤ 100
CNC(=O)c1cncc(-c2ncc3[nH]nc(-c4ccc(N5CCN(C)CC5)cc4)c3n2)c1 [Example 9, N-Methyl-5-(3-(4-(4-methylpiperazin-1-yl)phenyl)-1H-pyrazolo[4,3-d]pyrimidin-5-yl)nicotinamide] | ≤ 100
CN1CCN(c2ccc(-c3n[nH]c4cnc(-c5cccc6c5CCNC6)nc34)cc2)CC1 [Example 10, 5-(3-(4-(4-Methylpiperazin-1-yl)phenyl)-1H-pyrazolo[4,3-d]pyrimidin-5-yl)-1,2,3,4-tetrahydroisoquinoline] | ≤ 100
COc1cccc(F)c1-c1ncc2[nH]nc(-c3ccc(N4CCN(C)CC4)cc3)c2n1 [Example 11, 5-(2-Fluoro-6-methoxyphenyl)-3-(4-(4-methylpiperazin-1-yl)phenyl)-1H-pyrazolo[4,3-d]pyrimidine] | ≤ 100
COc1cccc(F)c1-c1ncc2[nH]nc(-c3ccccc3)c2n1 [Example 12, 5-(2-Fluoro-6-methoxyphenyl)-3-phenyl-1H-pyrazolo[4,3-d]pyrimidine] | ≤ 100
COc1cccc(F)c1-c1ncc2[nH]nc(-c3ccccc3F)c2n1 [Example 13, 5-(2-Fluoro-6-methoxyphenyl)-3-(2-fluorophenyl)-1H-pyrazolo[4,3-d]pyrimidine] | 100 to 500
COc1cccc(F)c1-c1ncc2[nH]nc(-c3cnn(C)c3)c2n1 [Example 14, 5-(2-Fluoro-6-methoxyphenyl)-3-(1-methyl-1H-pyrazol-4-yl)-1H-pyrazolo[4,3-d]pyrimidine] | ≤ 100
COc1cccc(F)c1-c1ncc2[nH]nc(-c3ccncc3)c2n1 [Example 15, 5-(2-Fluoro-6-methoxyphenyl)-3-(pyridin-4-yl)-1H-pyrazolo[4,3-d]pyrimidine] | ≤ 100
COc1cccc(F)c1-c1ncc2[nH]nc(-c3cncnc3)c2n1 [Example 16, 5-(2-Fluoro-6-methoxyphenyl)-3-(pyrimidin-5-yl)-1H-pyrazolo[4,3-d]pyrimidine] | 100 to 500
COc1cccc(F)c1-c1ncc2[nH]nc(-c3ccc(C#N)cc3)c2n1 [Example 17, 4-(5-(2-Fluoro-6-methoxyphenyl)-1H-pyrazolo[4,3-d]pyrimidin-3-yl)benzonitrile] | ≤ 100
COc1cccc(F)c1-c1ncc2[nH]nc(-c3ccc(C(F)(F)F)cc3)c2n1 [Example 18, 5-(2-Fluoro-6-methoxyphenyl)-3-(4-(trifluoromethyl)phenyl)-1H-pyrazolo[4,3-d]pyrimidine] | 100 to 500
COc1cccc(-c2n[nH]c3cnc(-c4c(F)cccc4OC)nc23)c1 [Example 19, 5-(2-Fluoro-6-methoxyphenyl)-3-(3-methoxyphenyl)-1H-pyrazolo[4,3-d]pyrimidine] | ≤ 100

SMILES | Ki [nM]
COc1cccc(F)c1-c1ncc2[nH]nc(-c3ccccc3C)c2n1 [Example 20, 5-(2-Fluoro-6-methoxyphenyl)-3-o-tolyl-1H-pyrazolo[4,3-d]pyrimidine] | 500 to 5000
COc1cccc(F)c1-c1ncc2[nH]nc(-c3ccsc3)c2n1 [Example 21, 5-(2-Fluoro-6-methoxyphenyl)-3-(thiophen-3-yl)-1H-pyrazolo[4,3-d]pyrimidine] | ≤ 100
COc1cccc(F)c1-c1ncc2[nH]nc(-c3ccc(C(=O)N(C)C)cc3)c2n1 [Example 22, 4-(5-(2-Fluoro-6-methoxyphenyl)-1H-pyrazolo[4,3-d]pyrimidin-3-yl)-N,N-dimethylbenzamide] | 100 to 500
COc1cccc(F)c1-c1ncc2[nH]nc(-c3ccc(CN4CCN(C)CC4)cc3)c2n1 [Example 23, 5-(2-Fluoro-6-methoxyphenyl)-3-(4-((4-methylpiperazin-1-yl)methyl)phenyl)-1H-pyrazolo[4,3-d]pyrimidine] | ≤ 100
COc1cccc(F)c1-c1ncc2[nH]nc(-c3ccc(CN4CCOCC4)cc3)c2n1 [Example 24, 4-(4-(5-(2-Fluoro-6-methoxyphenyl)-1H-pyrazolo[4,3-d]pyrimidin-3-yl)benzyl)morpholine] | ≤ 100
COc1cccc(F)c1-c1ncc2[nH]nc(-c3cccc(CN4CCN(C)CC4)c3)c2n1 [Example 25, 5-(2-Fluoro-6-methoxyphenyl)-3-(3-((4-methylpiperazin-1-yl)methyl)phenyl)-1H-pyrazolo[4,3-d]pyrimidine] | ≤ 100
COc1cccc(F)c1-c1ncc2[nH]nc(-c3ccc(N4CCOCC4)cc3)c2n1 [Example 26, 4-(4-(5-(2-Fluoro-6-methoxyphenyl)-1H-pyrazolo[4,3-d]pyrimidin-3-yl)phenyl)morpholine] | ≤ 100
COc1cccc(F)c1-c1ncc2[nH]nc(-c3cccc(N4CCNCC4)c3)c2n1 [Example 27, 5-(2-Fluoro-6-methoxyphenyl)-3-(3-(piperazin-1-yl)phenyl)-1H-pyrazolo[4,3-d]pyrimidine] | ≤ 100
COc1cccc(F)c1-c1ncc2[nH]nc(-c3cccc(N4CCCC4)c3)c2n1 [Example 28, 5-(2-fluoro-6-methoxyphenyl)-3-(3-(pyrrolidin-1-yl)phenyl)-1H-pyrazolo[4,3-d]pyrimidine] | 100 to 500
COc1cccc(F)c1-c1ncc2[nH]nc(-c3cccc(N4CCOCC4)c3)c2n1 [Example 29, 4-(3-(5-(2-Fluoro-6-methoxyphenyl)-1H-pyrazolo[4,3-d]pyrimidin-3-yl)phenyl)morpholine] | ≤ 100
COc1cccc(F)c1-c1ncc2[nH]nc(-c3cccc(N(C)C)c3)c2n1 [Example 30, 3-(5-(2-Fluoro-6-methoxyphenyl)-1H-pyrazolo[4,3-d]pyrimidin-3-yl)-N,N-dimethylaniline] | ≤ 100
COc1cccc(F)c1-c1ncc2[nH]nc(-c3ccc(C(=O)N4CCOCC4)cc3)c2n1 [Example 31, (4-(5-(2-Fluoro-6-methoxyphenyl)-1H-pyrazolo[4,3-d]pyrimidin-3-yl)phenyl)(morpholino)methanone] | ≤ 100
COc1cccc(F)c1-c1ncc2[nH]nc(-c3ccc(C(=O)NC4CCCC4)cc3)c2n1 [Example 32, N-Cyclopentyl-4-(5-(2-fluoro-6-methoxyphenyl)-1H-pyrazolo[4,3-d]pyrimidin-3-yl)benzamide] | ≤ 100
COc1cccc(F)c1-c1ncc2[nH]nc(-c3ccc(C4(N5CCOCC5)CC4)cc3)c2n1 [Example 33, 4-(1-(4-(5-(2-Fluoro-6-methoxyphenyl)-1H-pyrazolo[4,3-d]pyrimidin-3-yl)phenyl)cyclopropyl)morpholine] | 100 to 500
COc1cccc(F)c1-c1ncc2[nH]nc(-c3ccc(CC#N)cc3)c2n1 [Example 34, 2-(4-(5-(2-Fluoro-6-methoxyphenyl)-1H-pyrazolo[4,3-d]pyrimidin-3-yl)phenyl)acetonitrile] | ≤ 100
COc1ccc(-c2n[nH]c3cnc(-c4c(F)cccc4OC)nc23)cc1 [Example 35, 5-(2-Fluoro-6-methoxyphenyl)-3-(4-methoxyphenyl)-1H-pyrazolo[4,3-d]pyrimidine] | ≤ 100
COc1cccc(F)c1-c1ncc2[nH]nc(-c3ccc(F)cc3)c2n1 [Example 36, 5-(2-Fluoro-6-methoxyphenyl)-3-(4-fluorophenyl)-1H-pyrazolo[4,3-d]pyrimidine] | ≤ 100
CCN1CCN(c2ccc(-c3n[nH]c4cnc(-c5c(F)cccc5OC)nc34)cc2)CC1 [Example 37, 3-(4-(4-Ethylpiperazin-1-yl)phenyl)-5-(2-fluoro-6-methoxyphenyl)-1H-pyrazolo[4,3-d]pyrimidine] | ≤ 100
CNC(=O)c1ccc(-c2n[nH]c3cnc(-c4c(F)cccc4OC)nc23)cc1 [Example 38, 4-(5-(2-Fluoro-6-methoxyphenyl)-1H-pyrazolo[4,3-d]pyrimidin-3-yl)-N-methylbenzamide] | ≤ 100
